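How tested: cells in 96-well plates exposed to compound for 48 hours at five concentrations. Definition used: TGI = concentration required for complete inhibition of growth.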 Where a SMILES comes first, the peptide text is derived from it. The star is where a group is joined. Cbz = O=C(OCc1ccccc1)*
Legend:
Assay in all cases: NCI-60 cell line screen, 48 h
CAKI-1 renal = system: CAKI-1 renal
CCRF-CEM leukemia = system: CCRF-CEM leukemia
M14 melanoma = system: M14 melanoma
NCI-H23 lung = system: NCI-H23 lung
SF-295 CNS = system: SF-295 CNS
T-47D breast = system: T-47D breast
U251 CNS = system: U251 CNS
UACC-257 melanoma = system: UACC-257 melanoma
OVCAR-4 ovarian = system: OVCAR-4 ovarian
SR leukemia = system: SR leukemia

CN(C)N1C(=C(C#N)C#N)C(c2ccccc2)CC1C#N (configuration not stated)
TGI (CAKI-1 renal): > 100 µM | TGI (CCRF-CEM leukemia): > 100 µM | TGI (M14 melanoma): > 100 µM | TGI (NCI-H23 lung): > 100 µM | TGI (SF-295 CNS): > 100 µM | TGI (T-47D breast): > 100 µM | TGI (U251 CNS): > 100 µM | TGI (UACC-257 melanoma): > 100 µM

Cc1c2ccccc2c(/C=N/NC(=O)CSCC(=O)N/N=C/c2c3ccccc3c(C)c3ccccc23)c2ccccc12
TGI (CAKI-1 renal): > 100 µM | TGI (CCRF-CEM leukemia): > 72.4 µM | TGI (M14 melanoma): > 100 µM | TGI (NCI-H23 lung): 50.7 µM | TGI (OVCAR-4 ovarian): > 100 µM | TGI (SF-295 CNS): 49.9 µM | TGI (T-47D breast): > 82.4 µM | TGI (U251 CNS): > 57.6 µM | TGI (UACC-257 melanoma): > 100 µM

CCOC(=O)c1nc2ccccc2nc1Nc1cc(OC)c(OC)c(OC)c1
TGI (CAKI-1 renal): > 100 µM | TGI (CCRF-CEM leukemia): > 100 µM | TGI (M14 melanoma): > 100 µM | TGI (NCI-H23 lung): > 100 µM | TGI (OVCAR-4 ovarian): > 100 µM | TGI (SF-295 CNS): > 100 µM | TGI (SR leukemia): > 100 µM | TGI (T-47D breast): > 100 µM | TGI (U251 CNS): > 100 µM

CN(C)c1ccc(-c2c(C#N)c(-c3ccccc3)n(NS(=O)(=O)c3ccccc3)c(=O)c2C#N)cc1
TGI (CAKI-1 renal): > 100 µM | TGI (CCRF-CEM leukemia): 83.5 µM | TGI (M14 melanoma): > 100 µM | TGI (OVCAR-4 ovarian): > 100 µM | TGI (SF-295 CNS): > 100 µM | TGI (U251 CNS): > 100 µM | TGI (UACC-257 melanoma): > 100 µM

C#CCOC(=O)C=[N+]=[N-]
TGI (CCRF-CEM leukemia): > 10 µM | TGI (M14 melanoma): > 10 µM | TGI (NCI-H23 lung): > 10 µM | TGI (SF-295 CNS): > 10 µM | TGI (SR leukemia): > 10 µM | TGI (T-47D breast): > 10 µM | TGI (U251 CNS): > 10 µM | TGI (UACC-257 melanoma): > 10 µM

Cc1cccc(C)c1NC(=S)N/C=C(\C#N)C(N)=O
TGI (CAKI-1 renal): > 100 µM | TGI (CCRF-CEM leukemia): > 100 µM | TGI (M14 melanoma): > 100 µM | TGI (NCI-H23 lung): > 100 µM | TGI (OVCAR-4 ovarian): > 100 µM | TGI (SF-295 CNS): > 100 µM | TGI (U251 CNS): > 100 µM | TGI (UACC-257 melanoma): > 100 µM

O=C(CSc1nc2ccccc2c(=O)n1-c1ccccc1)N=Nc1c(O)[nH]c2ccc(Br)cc12
TGI (CAKI-1 renal): 3.69 µM | TGI (CCRF-CEM leukemia): > 100 µM | TGI (M14 melanoma): 6.87 µM | TGI (NCI-H23 lung): 10.8 µM | TGI (SF-295 CNS): 8.93 µM | TGI (SR leukemia): > 26.6 µM | TGI (T-47D breast): 28.6 µM | TGI (U251 CNS): 4.26 µM | TGI (UACC-257 melanoma): 52 µM

O=C1CC(Nc2ccccc2)c2c(Cl)sc(Cl)c21 (configuration not stated)
TGI (CAKI-1 renal): 1.36 µM | TGI (CCRF-CEM leukemia): 0.442 µM | TGI (M14 melanoma): 3.4 µM | TGI (NCI-H23 lung): 3.75 µM | TGI (OVCAR-4 ovarian): 4.21 µM | TGI (SF-295 CNS): 19.5 µM | TGI (T-47D breast): > 20 µM | TGI (U251 CNS): 3.32 µM | TGI (UACC-257 melanoma): 3.86 µM

OC1C2CN3CCN(C2)CC1(c1ccccc1)C3 (configuration not stated)
TGI (CAKI-1 renal): > 100 µM | TGI (NCI-H23 lung): > 100 µM | TGI (OVCAR-4 ovarian): > 100 µM | TGI (SF-295 CNS): > 100 µM | TGI (SR leukemia): > 100 µM | TGI (U251 CNS): > 100 µM | TGI (UACC-257 melanoma): > 100 µM

CC(C)(C)c1ccc(O)c(C(O)c2ccccn2)c1 (configuration not stated)
TGI (CAKI-1 renal): > 100 µM | TGI (CCRF-CEM leukemia): > 100 µM | TGI (NCI-H23 lung): > 100 µM | TGI (SF-295 CNS): > 100 µM | TGI (SR leukemia): > 100 µM | TGI (T-47D breast): 80.9 µM | TGI (U251 CNS): > 100 µM

COc1cc(O)c2c(=O)c3cccc(C)c3[nH]c2c1
TGI (CAKI-1 renal): > 10 µM | TGI (CCRF-CEM leukemia): > 10 µM | TGI (M14 melanoma): > 10 µM | TGI (NCI-H23 lung): > 10 µM | TGI (OVCAR-4 ovarian): > 10 µM | TGI (SF-295 CNS): > 10 µM | TGI (T-47D breast): > 10 µM | TGI (U251 CNS): > 10 µM | TGI (UACC-257 melanoma): > 10 µM

CN(C)CCNc1c(O)c2c(c(O)c1Cl)C(=O)C=CC2=O
TGI (CCRF-CEM leukemia): 4.72 µM | TGI (M14 melanoma): 3.64 µM | TGI (NCI-H23 lung): 4.25 µM | TGI (OVCAR-4 ovarian): 3.29 µM | TGI (SF-295 CNS): 4.05 µM | TGI (T-47D breast): 4.38 µM | TGI (U251 CNS): 3.74 µM | TGI (UACC-257 melanoma): 3.09 µM

O=S(=O)(O)c1cc(O)c(N=NC2S(=O)(=O)OCCOS2(=O)=O)c2ccccc12
TGI (CAKI-1 renal): > 100 µM | TGI (CCRF-CEM leukemia): > 100 µM | TGI (M14 melanoma): > 100 µM | TGI (NCI-H23 lung): > 100 µM | TGI (OVCAR-4 ovarian): > 100 µM | TGI (SF-295 CNS): > 100 µM | TGI (T-47D breast): > 100 µM | TGI (U251 CNS): > 100 µM | TGI (UACC-257 melanoma): > 100 µM

O=C(Nc1ccc(Cl)cc1)c1cc(S(=O)(=O)Nc2nc3ncccc3[nH]2)c(SSc2cc(Cl)c(C(=O)Nc3ccc(Cl)cc3)cc2S(=O)(=O)Nc2nc3ncccc3[nH]2)cc1Cl
TGI (CAKI-1 renal): > 100 µM | TGI (CCRF-CEM leukemia): > 100 µM | TGI (M14 melanoma): > 100 µM | TGI (NCI-H23 lung): > 100 µM | TGI (OVCAR-4 ovarian): > 100 µM | TGI (SF-295 CNS): > 100 µM | TGI (T-47D breast): > 100 µM | TGI (U251 CNS): > 100 µM | TGI (UACC-257 melanoma): > 100 µM

CCOc1cc2c(cc1OC)c[n+](C)c1c3cc(OC)c(OC)cc3ccc21
TGI (CAKI-1 renal): > 100 µM | TGI (CCRF-CEM leukemia): > 65.8 µM | TGI (M14 melanoma): > 100 µM | TGI (NCI-H23 lung): > 100 µM | TGI (OVCAR-4 ovarian): > 100 µM | TGI (SF-295 CNS): > 100 µM | TGI (SR leukemia): > 100 µM | TGI (U251 CNS): > 48.2 µM | TGI (UACC-257 melanoma): > 100 µM

C[C@]12CCC(=O)C=C1CC[C@@H]1[C@@H]2CC[C@]2(C)C(=O)/C(=C/c3ccc([N+](=O)[O-])cc3)C[C@@H]12
TGI (CAKI-1 renal): > 100 µM | TGI (CCRF-CEM leukemia): > 100 µM | TGI (M14 melanoma): > 100 µM | TGI (NCI-H23 lung): > 100 µM | TGI (SF-295 CNS): > 100 µM | TGI (SR leukemia): > 100 µM | TGI (T-47D breast): > 100 µM | TGI (UACC-257 melanoma): > 100 µM

CC1=C[C@H](C[C@]2(C)c3c(c4c(C)cccc4oc3=O)O[C@@H]2C)OC1=O
TGI (CAKI-1 renal): > 100 µM | TGI (CCRF-CEM leukemia): 74.7 µM | TGI (M14 melanoma): > 100 µM | TGI (NCI-H23 lung): > 100 µM | TGI (SF-295 CNS): > 100 µM | TGI (SR leukemia): 61.3 µM | TGI (T-47D breast): > 100 µM | TGI (U251 CNS): > 100 µM | TGI (UACC-257 melanoma): > 100 µM

CCOC(=O)CCC(NC(=O)C(CC(=O)OC)NC(=O)OCc1ccccc1)C(=O)NC(CC(=O)OC)C(=O)NC(CCC(=O)OCC)C(=O)NC(CC(=O)OC)C(=O)NC(CCC(=O)OCC)C(=O)NC(CC(=O)OCC)C(=O)OCC (configuration not stated) (Cbz-D(OMe)E(OEt)D(OMe)E(OEt)D(OMe)E(OEt)D(OEt)-OEt; configuration not given here)
TGI (CCRF-CEM leukemia): > 100 µM | TGI (NCI-H23 lung): > 100 µM | TGI (OVCAR-4 ovarian): > 100 µM | TGI (SR leukemia): > 100 µM | TGI (T-47D breast): > 100 µM | TGI (U251 CNS): > 100 µM | TGI (UACC-257 melanoma): > 100 µM

O=[N+]([O-])C(/C(Cl)=C(/Cl)N1CCOCC1)=C1\Nc2ccccc2O1
TGI (CAKI-1 renal): > 100 µM | TGI (CCRF-CEM leukemia): > 100 µM | TGI (M14 melanoma): > 100 µM | TGI (NCI-H23 lung): > 100 µM | TGI (OVCAR-4 ovarian): > 100 µM | TGI (SF-295 CNS): > 100 µM | TGI (T-47D breast): > 100 µM | TGI (U251 CNS): > 100 µM | TGI (UACC-257 melanoma): > 100 µM

CCOC(=O)c1ccc(N2C(=O)/C(=C/c3ccc(N(CCC#N)CCC#N)cc3)N=C2c2cc([N+](=O)[O-])ccc2Cl)cc1
TGI (CAKI-1 renal): > 100 µM | TGI (CCRF-CEM leukemia): > 100 µM | TGI (NCI-H23 lung): > 100 µM | TGI (OVCAR-4 ovarian): > 100 µM | TGI (SF-295 CNS): > 100 µM | TGI (SR leukemia): > 100 µM | TGI (U251 CNS): > 100 µM

CSC(=Nc1ccccc1)c1c(C)[nH]n(-c2ccccc2)c1=O
TGI (CAKI-1 renal): > 100 µM | TGI (CCRF-CEM leukemia): > 100 µM | TGI (M14 melanoma): > 100 µM | TGI (NCI-H23 lung): > 100 µM | TGI (OVCAR-4 ovarian): > 100 µM | TGI (SR leukemia): > 100 µM | TGI (T-47D breast): > 100 µM | TGI (U251 CNS): > 100 µM | TGI (UACC-257 melanoma): > 100 µM

CC1=NN(c2ccccc2)C(=O)/C1=C1\SC(c2ccccc2)(c2ccccc2)c2ccccc21
TGI (CAKI-1 renal): > 100 µM | TGI (CCRF-CEM leukemia): > 100 µM | TGI (M14 melanoma): > 100 µM | TGI (NCI-H23 lung): > 100 µM | TGI (OVCAR-4 ovarian): > 100 µM | TGI (SF-295 CNS): > 100 µM | TGI (T-47D breast): > 100 µM | TGI (U251 CNS): > 100 µM | TGI (UACC-257 melanoma): > 100 µM

CCOC(=O)c1nc(SC)sc1NC(=O)c1ccc(OC)cc1
TGI (CAKI-1 renal): > 100 µM | TGI (CCRF-CEM leukemia): > 100 µM | TGI (M14 melanoma): > 100 µM | TGI (NCI-H23 lung): > 100 µM | TGI (OVCAR-4 ovarian): 89.9 µM | TGI (SF-295 CNS): > 100 µM | TGI (T-47D breast): > 100 µM | TGI (U251 CNS): 55.4 µM | TGI (UACC-257 melanoma): > 100 µM

— PubChem BioAssay (NCI)
